Experimental data as given in patent US8841233B2, “Herbicidal compositions comprising 4-amino-3-chloro-5-fluoro-6-(4-chloro-2-fluoro-3-methoxyphenyl) pyridine-2-carboxylic acid or a derivative thereof and 4-hydroxyphenyl-pyruvate dioxygenase (HPPD) inhibitors” (Dow Agrosciences LLC, priority 2012, dated 2014).

Assays:
[1] = system: SCPJU; test: In-water applied weed control, transplanted paddy rice, greenhouse (Example II); format: in vivo, Schoenoplectus juncoides (Roxb.) Palla; settings: 4.38 gae/ha
Method: Evaluation of in-Water Applied Herbicidal Mixtures for Weed Control in Transplanted Paddy Rice
Weed seeds or nutlets of the desired test plant species were planted in puddled soil (mud) prepared by mixing a shredded, non-sterilized mineral soil (50.5 percent silt, 25.5 percent clay, and 24 percent sand, with a pH of about 7.6 and an organic matter content of about 2.9 percent) and water at a 1:1 volumetric ratio. The prepared mud was dispensed in 365 mL aliquots into 16-ounce (oz.) non-perforated plastic pots with a surface area of 86.59 square centimeters (cm^2) leaving a headspace of 3 centimeters (cm) in each pot. Mud was allowed to dry overnight prior to planting or transplanting. Rice seeds were planted in Sun Gro MetroMix® 306 planting mixture, which typically has a pH of 6.0 to 6.8 and an organic matter content of about 30 percent, in plastic plug trays. Seedlings at the second or third leaf stage of growth were transplanted into 840 mL of mud contained in 32-oz. non-perforated plastic pots with a surface area of 86.59 cm^2 4 days prior to herbicide application. The paddy was created by filling the headspace of the pots with 2.5 to 3 cm of water. When required to ensure good germination and healthy plants, a fungicide treatment and/or other chemical or physical treatment was applied. The plants were grown for 4-22 days in a greenhouse with an approximate 14 h photoperiod which was maintained at about 29′C during the day and 26° C. during the night. Nutrients were added as Osmocote® (19:6:12, N:P:K+ minor nutrients) at 2 g per 16-oz. pot and 4 g per 32-oz. pot. […]
Treatment requirements for each compound or herbicidal component were calculated based upon the rates being tested, the concentration of active ingredient or acid equivalent in the formulation, an application volume of 2 mL per component per pot, and an application area of 86.59 cm^2 per pot.
For formulated compounds, a measured amount was placed in an individual 100 or 200 mL glass vial and was dissolved in a volume of 1.25% (v/v) Agri-Dex® crop oil concentrate to obtain application solutions. […]

[2] = system: IPOHE; test: Pre-emergence soil-applied weed control, greenhouse (Example III); format: in vivo, Ipomoea hederacea (L.) Jacq.
Excerpt: (§1) Evaluation of Pre-emergence Soil-Applied Herbicidal Mixtures for Weed Control
(§2) Seeds or nutlets of the desired test plant species were planted in a soil matrix prepared by mixing a loam soil (32 percent silt, 23 percent clay, and 45 percent sand, with a pH of about 6.5 and an organic matter content of about 1.9 percent) and calcareous grit in an 80 to 20 ratio. The soil matrix was contained in plastic pots with a volume of 1 quart and a surface area of 83.6 square centimeters (cm^2).
(§3) Treatments consisted of the benzyl ester of 4-amino-3-chloro-5-fluoro-6-(4-chloro-2-fluoro-3-methoxy-phenyl)pyridine-2-carboxylic acid (compound A) formulated as an SC (suspension concentrate) and various herbicidal components alone and in combination. Forms of compound A were applied on an acid equivalent basis.
(§4) Other herbicidal components were applied on an acid equivalent or active ingredient basis and included the 4-hydroxyphenyl pyruvate dioxygenase (HPPD)-inhibiting herbicide, isoxaflutole, formulated as Balance Pro®.
(§5) Treatment requirements were calculated based upon the rates being tested, the concentration of active ingredient or acid equivalent in the formulation, and a 12 mL application volume at a rate of 187 L/ha.
(§6) For treatments comprised of formulated compounds, measured amounts of compounds were placed individually in 25 mL glass vials and diluted in a volume of 1.25% (v/v) Agri-Dex® crop oil concentrate (COC) to obtain 12× stock solutions. […] Application solutions were prepared by adding an appropriate amount of each stock solution (e.g., 1 mL) and diluted to the appropriate final concentrations with the addition of 10 mL of an aqueous mixture of 1.25% (v/v) COC so that the final spray solutions contained 1.25% (v/v) COC.
(§7) All stock solutions and applications solutions were visually inspected for compound compatibility prior to application. Spray solutions were applied to the soil with an overhead Mandel track sprayer equipped with a 8002E nozzles calibrated to deliver 187 L/ha over an application area of 0.503 m^2 at a spray height of 18 inches (46 cm) above average pot height. Control pots were sprayed in the same manner with the solvent blank.
(§8) The treated and control pots were placed in a greenhouse and top watered as needed. When required to ensure good germination and healthy plants, a fungicide treatment and/or other chemical or physical treatment was applied. […] After approximately 4 weeks, the condition of the test plants as compared with that of the untreated plants was determined visually and scored on a scale of 0 to 100 percent where 0 corresponds to no injury or growth inhibition and 100 corresponds to complete kill. […]

[3] = system: XANST; test: as above; format: in vivo, Xanthium strumarium L.
Excerpt: as §1, §2, §3, §4, §5, §6, §7, §8

## COc1c(Cl)ccc(-c2nc(C(=O)OCc3ccccc3)c(Cl)c(N)c2F)c1F [Compound A Benzyl Ester, benzyl ester of 4-amino-3-chloro-5-fluoro-6-(4-chloro-2-fluoro-3-methoxy-phenyl)pyridine-2-carboxylic acid]
[1]
  Visual Weed Control (%) - 21 DAA SCPJU Obs: 70%
[2]; 8 gae/ha
  Visual Weed Control (%) - 32 DAA IPOHE Obs: 5%
[2]; 16 gae/ha
  Visual Weed Control (%) - 32 DAA IPOHE Obs: 10%
[2]; 32 gae/ha
  Visual Weed Control (%) - 32 DAA IPOHE Obs: 10%
[3]; 8 gae/ha
  Visual Weed Control (%) - 32 DAA XANST Obs: 33%
[3]; 16 gae/ha
  Visual Weed Control (%) - 32 DAA XANST Obs: 35%
[3]; 32 gae/ha
  Visual Weed Control (%) - 32 DAA XANST Obs: 65%
